The results in this text go back to patent US6783558B2, “Hair coloring method and composition” (Kao Corporation, priority 2001, dated 2004).

Data set [1] can be described thus: Measurement of pKa value by spectrophotometric titration. Format: physicochemical. To be noted: DMF/water (1/1) solution, 2×10^−5 mol/l, titrated from pH 2 with NaOH, visible ultra-violet absorption spectrum, read-out: pKa value determined. As to the method:
The dissociative dye represents the dye that can release a proton and be anionic above a certain pH value. The pKa value can be determined by the following method: The sample is dissolved in a solution of a DMF/water (1/1) volume ratio to a final concentration of 2×10^−5 mol/l. After the resulting solution is adjusted to pH 2, using 1.0 mol/l hydrochloric acid, the solution is titrated with aqueous 1.0 mol/l sodium hydroxide solution. Recording the change of the visible ultra-violet absorption spectrum, the inflection point is determined by regression analysis.
pKa values of the dyestuffs DS-3 to DS-6, DS-7 and DS10 were determined by the following method: The dye was dissolved in a solution of a DMF/water (1/1) volume ratio to a final concentration of 2×10^−5 mol/l. After the resulting solution was adjusted to pH 2, using 1.0 mol/l hydrochloric acid, the solution was titrated with aqueous 1.0 mol/l sodium hydroxide solution. Recording the change of the visible ultra-violet absorption spectrum, the inflection point was determined by regression analysis.

Data set [2] is described as follows: Dyeing of undamaged white goat tress with general composition, Examples 7-15. The conditions noted are these: 0.02 g dyestuff in 10 g general composition (Table 6), 20 mins at 50° C. As for the experimental part: the following general composition was prepared for each of pyrazolotriazole direct dyes DS-3, DS-4, DS-6, DS-7 and DS-12 to DS-16. Each composition was applied to one undamaged white goat tress for 20 mins at 50° C. (1 g of tress was covered by 1.5 to 2 g of composition). After 20 mins the tresses were rinsed, shampoo washed and then dried before the colour was assessed.

A short description of data set [3]: Compatibility with hydrogen peroxide, Examples 18-21. Set-up: species or system human. The conditions noted are these: for Delta a (change in red colour): 0.02 g dyestuff in 10 g, undamaged human blond hair, 20 mins at 50° C; for stability to alkaline peroxide: composition with ammonia and hydrogen peroxide. As to the method: The following general compositions in Table 10 were prepared for each of pyrazolotriazole direct dyes DS-4 and DS-6.
Each composition was applied to one undamaged human blond hair for 20 mins at 50° C. After 20 mins the tresses were rinsed, shampoo washed and then dried before the colour was assessed.

Structures are written as SMILES.

For the compound `CC1=Nn2nc(C)nc2/C1=N\c1cc(Cl)c(O)c(Cl)c1` [DS-3], the pKa in data set [1] came out at 3.78. In data set [2], the “Colouring Result” value is “Bright, intense magenta”; the “Delta E” value was determined as 81; the L is listed as 30; the a is 54. This compound also had a b in data set [2] of −12.
`Cc1nc2n(n1)N=C(C(C)(C)C)/C2=N/c1cc(Cl)c(O)c(Cl)c1` [DS-4]: the pKa in data set [1] came to 3.88. Further, in data set [2], the “Colouring Result” value is reported as “Bright, intense magenta”; the “Delta E” value came out at 75; the L is listed as 38; the a is recorded as 60. This compound yielded a b in data set [2] of 16. In addition, in data set [3] (H2O2 3 wt %), the “Delta a (change in red colour)” value amounted to 39. The “Delta a (change in red colour)” value in data set [3] (H2O2 None) is 27. Besides, the “stability to alkaline peroxide” value in data set [3] is given as “stable to alkaline peroxide”.
Consider `CC1=Nn2c(C)nnc2/C1=N\c1cc(Cl)c(O)c(Cl)c1` [DS-5], for which the pKa in data set [1] was 4.34.
Regarding `Cc1nnc2n1N=C(C(C)(C)C)/C2=N/c1cc(Cl)c(O)c(Cl)c1` [DS-6], in data set [2], the “Colouring Result” value was “Bright pink”, the “Delta E” value amounted to 55, the L came out at 57 and the a stood at 42. The same compound displayed a b in data set [2] of −7. In addition, the “Delta a (change in red colour)” value in data set [3] (H2O2 3 wt %) is given as 30. For the same compound, in data set [3] (H2O2 None), the “Delta a (change in red colour)” value came out at 15. The “stability to alkaline peroxide” value in data set [3] is listed as “stable to alkaline peroxide”.
Take `CC(C)c1nc2n(n1)N=C(C(C)(C)C)/C2=N/c1cc(Cl)c(O)c(Cl)c1` [DS-7]: the pKa in data set [1] was determined as 3.92. Besides, in data set [2], the “Colouring Result” value is “Pink”, the “Delta E” value was determined as 60, the L is 50 and the a stood at 50. The compound also came in with a b in data set [2] of −8.
With `CC1=Nn2nc(C(C)CN)nc2/C1=N\c1cc(Cl)c(O)c(Cl)c1` (stereo not shown) [DS-10], the pKa in data set [1] was found to be 3.38.
As for `CSc1nnc2n1N=C(c1ccccc1)/C2=N/c1cc(Cl)c(O)c(Cl)c1` [DS-12], in data set [2], the “Colouring Result” value is given as “Violet”, the “Delta E” value is reported as 59, the L was determined as 48 and the a amounted to 29. Moreover, the b in data set [2] is given as −26.
On to `CC(C)c1nc2n(n1)N=C(c1ccccc1Cl)/C2=N/c1cc(Cl)c(O)c(Cl)c1` [DS-15], for which, in data set [2], the “Colouring Result” value was “Violet”, the “Delta E” value is recorded as 55, the L amounted to 51 and the a is 33. In data set [2], this compound displayed a b of −17.
In the case of `CC(C)(C)C1=Nn2nc(-c3ccc(NS(C)(=O)=O)cc3)nc2/C1=N\c1cc(Cl)c(O)c(Cl)c1` [DS-16], in data set [2], the “Colouring Result” value is on record as “Bright pink”, the “Delta E” value is on record as 52, the L is listed as 55 and the a is 41. Besides, the b in data set [2] was −3.

What is called pKa is the pH at which an ionisable group is half protonated.
